Literature values, collected in patent US9308243B2, “Cellular enhancements in biological systems through the use of li-pofullerene and peptide group combinations” (LivePet, LLC, priority 2014, dated 2016).

System: male flies
Settings: tiny amount added to food supply

NCCC(=O)N[C@@H](Cc1c[nH]cn1)C(=O)O [carnosine, L-Carnosine]
increase in the average life span: 20%
